# Assay results: patent US9499547B2 (BAYER INTELLECTUAL PROPERTY GMBH, priority 2011, dated 2016)
# Experiments:
# [1] = biological target: T1, human full-length MKNK1 (Homo sapiens (Human), UniProt Q9BUB5, T344D); assay: MKNK1 kinase assay (MKNK1 TR-FRET assay); type: biochemical; settings: 10 μM ATP final conc.; 15 min preincubation with enzyme
# Experimental: MKNK1-inhibitory activity of compounds of the present invention was quantified employing the MKNK1 TR-FRET assay as described in the following paragraphs.
# As substrate for the kinase reaction the biotinylated peptide biotin-Ahx-[…] (C-terminus in amide form) was used which can be purchased e.g. form the company Biosyntan (Berlin-Buch, Germany).
# (§1) For the assay 50 nL of a 100 fold concentrated solution of the test compound in DMSO was pipetted into a black low volume 384 well microtiter plate (Greiner Bio-One, Frickenhausen, Germany), 2 μL of a solution of MKNK1 in aqueous assay buffer [50 mM HEPES pH 7.5, 5 mM magnesium chloride, 1.0 mM dithiothreitol, 0.005% (v/v) Nonidet-P40 (Sigma)] was added and the mixture was incubated for 15 min at 22° C. to allow pre-binding of the test compounds to the enzyme before the start of the kinase reaction. Then the kinase reaction was started by the addition of 3 μL of a solution of adenosine-tri-phosphate (ATP, 16.7 μM=>final conc. in the 5 μL assay volume is 10 μM) and substrate (0.1 μM=>final conc. in the 5 μL assay volume is 0.06 μM) in assay buffer and the resulting mixture was incubated for a reaction time of 45 min at 22° C. The concentration of MKNK1 was adjusted depending of the activity of the enzyme lot and was chosen appropriate to have the assay in the linear range, typical concentrations were in the range of 0.05 μg/ml. The reaction was stopped by the addition of 5 μL of a solution of TR-FRET detection reagents (5 nM streptavidine-XL665 [Cisbio Bioassays, Codolet, France] and 1 nM anti-ribosomal protein S6 (pSer236)-antibody from Invitrogen [#44921G] and 1 nM LANCE EU-W1024 labeled ProteinG [Perkin-Elmer, product no. AD0071]) in an aqueous EDTA-solution (100 mM EDTA, 0.1% (w/v) bovine serum albumin in 50 mM HEPES pH 7.5).
# (§2) The resulting mixture was incubated for 1 h at 22° C. to allow the formation of complex between the phosphorylated biotinylated peptide and the detection reagents. Subsequently the amount of phosphorylated substrate was evaluated by measurement of the resonance energy transfer from the Eu-chelate to the streptavidine-XL. Therefore, the fluorescence emissions at 620 nm and 665 nm after excitation at 350 nm were measured in a TR-FRET reader, e.g. a Rubystar (BMG Labtechnologies, Offenburg, Germany) or a Viewlux (Perkin-Elmer). The ratio of the emissions at 665 nm and at […] was taken as the measure for the amount of phosphorylated substrate. The data were normalised (enzyme reaction without inhibitor=0% inhibition, all other assay components but no enzyme=100% inhibition).
# [2] = biological target: T1, human full-length MKNK1; assay: MKNK1 kinase high ATP assay (TR-FRET-based); type: biochemical; settings: 2 mM ATP final conc.; 15 min preincubation with enzyme
# Experimental: MKNK1 Kinase High ATP Assay
# MKNK1-inhibitory activity at high ATP of compounds of the present invention after their preincubation with MKNK1 was quantified employing the TR-FRET-based MKNK1 high ATP assay as described in the following paragraphs.
# As substrate for the kinase reaction the biotinylated peptide biotin-Ahx-[…] (C-terminus in amide form) was used, which can be purchased e.g. from the company Biosyntan (Berlin-Buch, Germany).
# as §1, with “3.3 mM=>final” for “16.7 μM=>final”, “2 mM)” for “10 μM)”, “30” for “45”, “0.003 μg/mL.” for “0.05 μg/ml.”
# as §2
# T1 sequence (Q9BUB5 other isoform, or with tags, fused parts or gaps T344D): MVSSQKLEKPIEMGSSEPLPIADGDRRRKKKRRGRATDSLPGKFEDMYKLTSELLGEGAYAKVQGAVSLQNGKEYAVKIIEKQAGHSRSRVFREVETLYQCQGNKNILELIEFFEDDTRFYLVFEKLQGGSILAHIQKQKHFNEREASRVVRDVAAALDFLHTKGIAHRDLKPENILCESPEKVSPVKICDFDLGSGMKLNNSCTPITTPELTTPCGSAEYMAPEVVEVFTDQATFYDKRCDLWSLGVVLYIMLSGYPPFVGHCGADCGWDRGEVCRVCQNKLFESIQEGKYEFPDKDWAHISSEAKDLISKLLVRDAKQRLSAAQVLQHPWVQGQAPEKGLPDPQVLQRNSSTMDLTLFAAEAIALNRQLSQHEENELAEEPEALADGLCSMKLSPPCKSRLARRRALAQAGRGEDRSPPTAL
SMILES,IC50 [1] [nM],IC50 [2] [nM]
"COc1cccc2oc(-c3cnc4ccc(OCCCCN)nn34)cc12 [Example 1, 4-{[3-(4-Methoxy-1-benzofuran-2-yl)imidazo[1,2-b]pyridazin-6-yl]oxy}butan-1-amine]",3,5
"N[C@H]1C[C@H](Oc2ccc3ncc(-c4cc5ccccc5o4)n3n2)C1 [Example 2, trans-3-{[3-(1-Benzofuran-2-yl)imidazo[1,2-b]pyridazin-6-yl]oxy}cyclobutanamine]",5,6
"N[C@H]1C[C@@H](Oc2ccc3ncc(-c4cc5ccccc5o4)n3n2)C1 [Example 3, cis-3-{[3-(1-Benzofuran-2-yl)imidazo[1,2-b]pyridazin-6-yl]oxy}cyclobutanamine]",4,17
"COc1cccc2oc(-c3cnc4ccc(OCCCN)nn34)cc12 [Example 4, 3-{[3-(4-Methoxy-1-benzofuran-2-yl)imidazo[1,2-b]pyridazin-6-yl]oxy}propan-1-amine]",5,15
"COc1cccc2oc(-c3cnc4ccc(OCCN)nn34)cc12 [Example 5, 2-{[3-(4-Methoxy-1-benzofuran-2-yl)imidazo[1,2-b]pyridazin-6-yl]oxy}ethanamine]",6,18
"COc1ccc2oc(-c3cnc4ccc(OCCN)nn34)cc2c1 [Example 6, 2-{[3-(5-Methoxy-1-benzofuran-2-yl)imidazo[1,2-b]pyridazin-6-yl]oxy}ethanamine]",6,13
"C[C@H](N)COc1ccc2ncc(-c3cc4ccccc4o3)n2n1 [Example 7, (2S)-1-{[3-(1-Benzofuran-2-yl)imidazo[1,2-b]pyridazin-6-yl]oxy}propan-2-amine]",7,18
"NCCCCOc1ccc2ncc(-c3cc4ccccc4o3)n2n1 [Example 8, 4-{[3-(1-Benzofuran-2-yl)imidazo[1,2-b]pyridazin-6-yl]oxy}butan-1-amine]",7,17
"COc1ccc2oc(-c3cnc4ccc(OCCCN)nn34)cc2c1 [Example 9, 3-{[3-(5-Methoxy-1-benzofuran-2-yl)imidazo[1,2-b]pyridazin-6-yl]oxy}propan-1-amine]",7,22
"NCCCOc1ccc2ncc(-c3cc4ccccc4o3)n2n1 [Example 11, 3-{[3-(1-Benzofuran-2-yl)imidazo[1,2-b]pyridazin-6-yl]oxy}propan-1-amine]",8,24
"NCCOCCOc1ccc2ncc(-c3cc4ccccc4o3)n2n1 [Example 21, 2-(2-{[3-(1-Benzofuran-2-yl)imidazo[1,2-b]pyridazin-6-yl]oxy}ethoxy)ethanamine]",,14
"N[C@@H]1CCCC[C@H]1Oc1ccc2ncc(-c3cc4ccccc4o3)n2n1 [Example 23, (1R,2R)-2-{[3-(1-Benzofuran-2-yl)imidazo[1,2-b]pyridazin-6-yl]oxy}cyclohexanamine]",,18
"NC1(COc2ccc3ncc(-c4cc5ccccc5o4)n3n2)CCC1 [Example 27, 1-({[3-(1-Benzofuran-2-yl)imidazo[1,2-b]pyridazin-6-yl]oxy}methyl)cyclobutanamine]",,29
"C=CCCC(CN)Oc1ccc2ncc(-c3cc4ccccc4o3)n2n1 (centres unmarked) [Example 28, 2-{[3-(1-Benzofuran-2-yl)imidazo[1,2-b]pyridazin-6-yl]oxy}hex-5-en-1-amine]",,45
"NCC(CN1CCOCC1)Oc1ccc2ncc(-c3cc4ccccc4o3)n2n1 (centres unmarked) [Example 31, 2-{[3-(1-Benzofuran-2-yl)imidazo[1,2-b]pyridazin-6-yl]oxy}-3-(morpholin-4-yl)-propan-1-amine]",,78
"NC(COc1ccc2ncc(-c3cc4ccccc4o3)n2n1)C1CCOCC1 (centres unmarked) [Example 32, 2-{[3-(1-Benzofuran-2-yl)imidazo[1,2-b]pyridazin-6-yl]oxy}-1-(tetrahydro-2H-pyran-4-yl)ethanamine]",,79
"NCC(Cc1ccc(F)cc1)Oc1ccc2ncc(-c3cc4ccccc4o3)n2n1 (centres unmarked) [Example 53, 2-{[3-(1-Benzofuran-2-yl)imidazo[1,2-b]pyridazin-6-yl]oxy}-3-(4-fluorophenyl)-propan-1-amine]",,46
"NCC(Cc1ccncc1)Oc1ccc2ncc(-c3cc4ccccc4o3)n2n1 (centres unmarked) [Example 54, 2-{[3-(1-Benzofuran-2-yl)imidazo[1,2-b]pyridazin-6-yl]oxy}-3-(pyridin-4-yl)-propan-1-amine]",,19
"NC[C@H](Oc1ccc2ncc(-c3cc4ccccc4o3)n2n1)c1cccnc1 [Example 55, (2R)-2-{[3-(1-benzofuran-2-yl)imidazo[1,2-b]pyridazin-6-yl]oxy}-2-(pyridin-3-yl)ethanamine]",16,
"NCC(Oc1ccc2ncc(-c3cc4ccccc4o3)n2n1)c1ccc(F)cc1 (centres unmarked) [Example 56, 2-{[3-(1-benzofuran-2-yl)-imidazo-[1,2-b]-pyridazin-6-yl]oxy}-2-(4-fluoro-phenyl)-ethanamine]",40,
"NCC(Oc1ccc2ncc(-c3cc4ccccc4o3)n2n1)c1ccccn1 (centres unmarked) [Example 57, 2-{[3-(1-benzofuran-2-yl)-imidazo-[1,2-b]-pyridazin-6-yl]oxy}-2-(pyridin-2-yl)-ethanamine]",94,
"CC(C)Oc1cccc(C(CN)Oc2ccc3ncc(-c4cc5ccccc5o4)n3n2)c1 (centres unmarked) [Example 58, 2-{[3-(1-benzofuran-2-yl)-imidazo-[1,2-b]-pyridazin-6-yl]oxy}-2-(3-iso-propoxy-phenyl)-ethanamine]",20,
"NCC(Oc1ccc2ncc(-c3cc4ccccc4o3)n2n1)c1cccc(C(F)(F)F)c1 (centres unmarked) [Example 59, 2-{[3-(1-benzofuran-2-yl)-imidazo-[1,2-b]-pyridazin-6-yl]oxy}-2-[3-(tri-fluoro-methyl)-phenyl]-ethanamine]",37,
"NCC(Oc1ccc2ncc(-c3cc4ccccc4o3)n2n1)c1ccc(F)cc1F (centres unmarked) [Example 60, 2-{[3-(1-benzofuran-2-yl)-imidazo-[1,2-b]-pyridazin-6-yl]oxy}-2-(2,4-di-fluoro-phenyl)-ethanamine]",39,
"N[C@H](COc1ccc2ncc(-c3cc4ccccc4o3)n2n1)c1ccc(F)cc1 [Example 61, (1S)-2-{[3-(1-benzofuran-2-yl)imidazo[1,2-b]pyridazin-6-yl]oxy}-1-(4-fluorophenyl)ethanamine]",29,
"N[C@H](COc1ccc2ncc(-c3cc4ccccc4o3)n2n1)c1ccc(Cl)cc1 [Example 62, (1S)-2-{[3-(1-benzofuran-2-yl)imidazo[1,2-b]pyridazin-6-yl]oxy}-1-(4-chlorophenyl)ethanamine]",31,
"NC(COc1ccc2ncc(-c3cc4ccccc4o3)n2n1)c1cccnc1 (centres unmarked) [Example 63, 2-{[3-(1-benzofuran-2-yl)imidazo[1,2-b]pyridazin-6-yl]oxy}-1-(pyridin-3-yl)ethanamine]",54,
NCCC(Oc1ccc2ncc(-c3cc4ccccc4o3)n2n1)c1ccc(F)cc1 (centres unmarked) [Example 64],57,
